Laboratory results from US11279737B2, “Antimicrobial peptide variants and uses thereof” (ANTINBIO, INC., priority 2019, dated 2022).
Values after ≈ are worked out from the molar mass of the structure shown. Where a SMILES comes first, the peptide text is derived from it. Bridges are numbered along the chain shown (N, C = ends).

How the values were obtained:
S. aureus ATCC 6538 [1] = system: S. aureus ATCC 6538
[2] = system: S. aureus MRSA ATCC 43300
S. aureus ATCC 6538 [3] = assay: inhibition zone assay; settings: 10 μg peptide per hole, 37° C., 16-18 hours
[4] = system: C. perfringens ATCC 13124
[5] = system: S. epidermidis ATCC 14990
human erythrocytes = assay: hemolytic assay; format: cell-based; settings: peptide 0.5-500 μg/ml, 37° C., 60 minutes, FIG. 2
Protocol: For the hemolysis assays, human erythrocytes were obtained from healthy donors, washed 3 times using sterilized PBS and re-suspended to a concentration of 2% (v/v) with PBS. The hegrisin, HCN2016-01 peptide, and plectasin (control) were diluted to concentrations of 500, 250, 125, 62.5, 32, 16, 8, 4, 2, 1, and 0.5 μg/ml. A 100 μL solution of each peptide and a 100 μL suspension of red blood cells were mixed and added to the wells of a 96-well plate. PBS was used as negative control and Triton X-100 was used as a positive control.
The samples were incubated at 37° C. for 60 minutes and gently stirred during the incubation period. Then, the samples were centrifuged at 2000 rpm for 5 minutes. A total of 100 μL of the supernatant in each well was transferred to a new 96-well plate and absorbance was measured at 490 nm using a microplate reader (Molecular Devices, USA).
For hemolysis assays, human erythrocytes were obtained from healthy donors, washed 3 times using sterilized PBS, and re-suspended to a concentration of 2% (v/v) with PBS. The HCN2016-01 peptide (SEQ ID NO: 2) and plectasin (control) were diluted to concentrations of 500; 250; 125; 62.5; 32; 16; 8; 4; 2; 1; and 0.5 μg/ml. A 100 μL of each peptide solution was mixed with a 100 μL solution of a red blood cell suspension and added to separate wells of a 96-well plate. PBS was used as negative control and Triton X-100 was used as a positive control. The samples were incubated at 37° C. for 60 minutes and gently stirred during the incubation period. The samples were then centrifuged at 2000 rpm for 5 minutes. A total of 100 μL of the supernatant in each well was transferred to a new 96-well plate and absorbance was measured at 490 nm using a microplate reader (Molecular Devices, USA).

Q: Which “Minimal inhibitory concentration (MIC)” value (S. aureus ATCC 6538 [1]; ATCC 6538) does the source give for `CC[C@H](C)[C@@H]1NC(=O)CNC(=O)CNC(=O)[C@H](Cc2ccccc2)NC(=O)[C@H](CCCCN)NC(=O)[C@@H]2CSSC[C@H](NC(=O)[C@H](CO)NC(=O)[C@H](Cc3c[nH]c4ccccc34)NC(=O)CN)C(=O)N[C@@H](CC(N)=O)C(=O)N[C@@H]([C@@H](C)CC)C(=O)N[C@@H](Cc3c[nH]c4ccccc34)C(=O)N[C@@H](CC(N)=O)C(=O)NCC(=O)N[C@@H](CC(N)=O)C(=O)N[C@@H](CC(=O)O)C(=O)N[C@@H](CCC(=O)O)C(=O)N3CCC[C@H]3C(=O)N[C@H]3CSSC[C@H](NC1=O)C(=O)N[C@@H](CCCCN)C(=O)N[C@H](C(=O)N[C@@H](Cc1ccc(O)cc1)C(=O)O)CSSC[C@H](NC(=O)[C@H](Cc1c[nH]cn1)NC(=O)[C@H](CCC(N)=O)NC(=O)[C@H](Cc1c[nH]cn1)NC3=O)C(=O)N[C@@H](CCCCN)C(=O)N[C@@H](CO)C(=O)N[C@@H]([C@@H](C)CC)C(=O)N[C@@H](CCCNC(=N)N)C(=O)NCC(=O)N[C@@H](Cc1ccc(O)cc1)C(=O)N[C@@H](CCCNC(=N)N)C(=O)NCC(=O)NCC(=O)N[C@@H](Cc1ccc(O)cc1)C(=O)N2` [HCN2016-01] (H-GWSCNIWNGNDEPCHQHCKSIRGYRGGYCKFGGICKCY-OH; disulfide 4-29, 14-35, 18-37 (inferred); N-terminus and C-terminus assumed) here?
A: 0.30 µg/mL (≈ 0.0692 µM)

Q: And the “activity against bacteria (in words)” value (S. aureus ATCC 6538 [1]; S. aureus ATCC 6538)?
A: strong activity

Q: What about the “antimicrobial activity compared to wild type hegrisin (in words)” value (S. aureus ATCC 6538 [1]; S. aureus ATCC 6538, lower MIC values) of the same compound?
A: improved antimicrobial activity

Q: What about the “Minimal inhibitory concentration (MIC)” value (L. delbrueckii ATCC 9649; ATCC 9649) of the same compound?
A: 8.0 µg/mL (≈ 1.85 µM)

Q: What about the “activity against bacteria (in words)” value (L. delbrueckii ATCC 9649; L. delbrueckii ATCC 9649) of the same compound?
A: strong activity

Q: What about the “Minimal inhibitory concentration (MIC)” value (L. plantarum ATCC 14917) of the same compound?
A: 16.0 µg/mL (≈ 3.69 µM)

Q: What about the “Minimal inhibitory concentration (MIC)” value ([2]; ATCC 43300) of the same compound?
A: 0.73 µg/mL (≈ 0.168 µM)

Q: What about the “activity against bacteria (in words)” value ([2]; S. aureus MRSA ATCC 43300) of the same compound?
A: strong activity

Q: What about the “antimicrobial activity compared to wild type hegrisin (in words)” value ([2]; S. aureus MRSA ATCC 43300) of the same compound?
A: improved antimicrobial activity

Q: What about the “Minimal inhibitory concentration (MIC)” value (S. salivarius ATCC 19258; ATCC 19258) of the same compound?
A: 4.0 µg/mL (≈ 0.923 µM)

Q: What about the “activity against bacteria (in words)” value (S. salivarius ATCC 19258; S. salivarius ATCC 19258) of the same compound?
A: strong activity

Q: And the “Activity (antimicrobial activity relative to unmodified hegrisin, zones of growth inhibition)” value (S. aureus ATCC 6538 [3])?
A: 2

Q: What about the “Minimal inhibitory concentration (MIC)” value (L. rhamnosus ATCC 14957) of the same compound?
A: 32.0 µg/mL (≈ 7.38 µM)

Q: What about the “Minimal inhibitory concentration (MIC)” value (L. lactis ATCC 19256) of the same compound?
A: 0.50 µg/mL (≈ 0.115 µM)

Q: And the “Minimal inhibitory concentration (MIC)” value (L. casei ATCC 393)?
A: >500.0 µg/mL

Q: What about the “Minimal inhibitory concentration (MIC)” value (B. subtilis ATCC 6633; ATCC 6633) of the same compound?
A: 0.50 µg/mL (≈ 0.115 µM)

Q: What about the “activity against bacteria (in words)” value (B. subtilis ATCC 6633; B. subtilis ATCC 6633) of the same compound?
A: strong activity

Q: And the “activity against bacteria (in words)” value [4]?
A: strong activity

Q: What about the “Minimal inhibitory concentration (MIC)” value ([4]; ATCC 13124) of the same compound?
A: 6.81 µg/mL (≈ 1.57 µM)

Q: And the “Minimal inhibitory concentration (MIC)” value ([5]; ATCC 14990)?
A: 0.31 µg/mL (≈ 0.0715 µM)

Q: And the “activity against bacteria (in words)” value ([5]; S. epidermidis ATCC 14990)?
A: strong activity

Q: What about the “antimicrobial activity compared to wild type hegrisin (in words)” value ([5]; S. epidermidis ATCC 14990) of the same compound?
A: improved antimicrobial activity

Q: And the “Minimal inhibitory concentration (MIC)” value (E. coli ATCC 25922; ATCC 25922)?
A: >500.0 µg/mL

Q: What about the “activity against bacteria (in words)” value (E. coli ATCC 25922; Gram negative bacteria E. coli) of the same compound?
A: minimal or no activity

Q: What about the “Minimal inhibitory concentration (MIC)” value (B. longum ATCC 15707; ATCC 15707) of the same compound?
A: 8.0 µg/mL (≈ 1.85 µM)

Q: What about the “activity against bacteria (in words)” value (B. longum ATCC 15707; B. longum ATCC 15707) of the same compound?
A: strong activity

Q: What about the “Minimal inhibitory concentration (MIC)” value (C. acnes ATCC 11827; ATCC 11827) of the same compound?
A: 8.0 µg/mL (≈ 1.85 µM)

Q: And the “activity against bacteria (in words)” value (C. acnes ATCC 11827; C. acnes ATCC 11827)?
A: strong activity

Q: What about the “cell lysis (hemolysis) of human erythrocytes” value (human erythrocytes) of the same compound?
A: no significant lysis
